According to article PMC6941823, “A dispensable paralog of succinate dehydrogenase subunit C mediates standing resistance towards a subclass of SDHI fungicides in Zymoseptoria tritici” (PLoS Pathogens, 2019):

Experiments:
[1] = system: Zymoseptoria tritici on wheat variety Riband; assay: In planta fungicide dose response; assay type: in vivo; conditions: for In planta EC50: application one day before infection
Description: The influence of the ZtSDHC3-driven SHA-SDHI resistance for the control of Z. tritici during wheat infection was assessed with a small range of commercial SDHIs (Fig 4C and 4D). In planta SDHIs sensitivity assays were performed with the 06STD024 isolate and its ZtSDHC1 or ZtSDHC3 KO mutants. A control strain (705) devoid of the ZtSDHC3 gene but more aggressive than IPO323 on wheat variety Riband was also included for comparison (Fig 4C and 4D).
Wheat (Triticum aestivum) variety Riband was grown in pots (d = 6.5cm), at a density of 4 plants per pot and treated with the growth regulator CCC (Chlorcholinchlorid; Chlormequat; 5 ml / pot, 0.4% solution) 4 days after sowing. Wheat plantlets were maintained in a climatic room at 18°C, 60% humidity and under a 12h light regime (high intensity). Fungicide applications were performed on 14 days old plantlets for which leaf 2 is the fully expanded target leaf. Fungicide treatments were performed using a custom-made track sprayer adjusted at 200L.ha^-1 (Nozzle: Lechler, orange LU90-01). […] Z. tritici infections were performed using a Devilbis airbrush (spray of about 150ml.m^-2) one day after fungicide application and using an inoculum grown on V8-agar adjusted to 1.8.10^6 spores.ml^-1 in 0.05% Tween20 in MQ water. Inoculated plants were initially incubated for 72h under reduced light conditions and high humidity using towel-covered Plexiglas hoods in a climatic chamber set to 21°C/19°C day/night alternations, 80% humidity and a 14h light regime. The Plexiglas hoods were then removed until evaluation. Plants were fertilized once per week and disease evaluation performed based on disease coverage on the second leaf approximately 16–19 days after infection, once untreated plants reached 75–90% disease coverage. Each fungicide was tested at several rates to produce dose responses. There were 3 pots (4 plants each) per fungicide rate and isolate, the whole experiment was repeated 4 times. In planta EC50 were calculated using the software GraphPad Prism v6.08.

[2] = molecular target: WT-SQR (SDHC), IPO323 mitochondria (Zymoseptoria tritici, UniProt F9X9V6+F9XH52+O42772); assay: Succinate-quinone (SQR) SDHI sensitivity assay on purified mitochondria, IPO323; assay type: biochemical
Procedure, shortened: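 Mitochondria purified from each strain were used for succinate:ubiquinone/DCPIP reductase assays, with suspensions adjusted to similar initial velocity (1 OD595nm hour^-1). Inhibitor was tested at 0.047 nM–50 μM in 4x steps (11 concentrations plus DMSO). IC50 came from non-linear fits of absorbance slopes (OD/min) against log concentration.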

Chain of WT-SQR (SDHC), IPO323 mitochondria (F9WWR1 entry or part of it): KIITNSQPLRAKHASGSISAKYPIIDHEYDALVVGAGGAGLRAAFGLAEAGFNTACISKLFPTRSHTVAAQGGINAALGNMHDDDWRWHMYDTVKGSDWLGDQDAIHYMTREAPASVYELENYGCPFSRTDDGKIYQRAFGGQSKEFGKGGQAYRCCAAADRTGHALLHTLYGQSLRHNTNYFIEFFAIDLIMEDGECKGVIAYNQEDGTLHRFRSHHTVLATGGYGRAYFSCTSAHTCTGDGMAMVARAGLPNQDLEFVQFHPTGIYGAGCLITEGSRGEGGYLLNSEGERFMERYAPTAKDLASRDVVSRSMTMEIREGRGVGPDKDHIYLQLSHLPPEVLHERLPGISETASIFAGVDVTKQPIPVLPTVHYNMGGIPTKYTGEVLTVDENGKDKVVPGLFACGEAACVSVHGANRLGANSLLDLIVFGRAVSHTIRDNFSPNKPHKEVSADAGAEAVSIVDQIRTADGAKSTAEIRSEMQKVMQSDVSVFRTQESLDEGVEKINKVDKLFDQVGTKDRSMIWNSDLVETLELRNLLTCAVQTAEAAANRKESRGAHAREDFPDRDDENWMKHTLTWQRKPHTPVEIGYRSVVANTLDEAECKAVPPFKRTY
Chain of WT-SQR (SDHC), IPO323 mitochondria (F9X9V6 entry or part of it): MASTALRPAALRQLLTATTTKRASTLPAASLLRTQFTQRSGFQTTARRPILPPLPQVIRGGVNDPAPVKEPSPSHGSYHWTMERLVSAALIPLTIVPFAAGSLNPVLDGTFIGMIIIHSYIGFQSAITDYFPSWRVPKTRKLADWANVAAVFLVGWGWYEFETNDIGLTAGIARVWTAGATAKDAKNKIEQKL
Chain of WT-SQR (SDHC), IPO323 mitochondria (O42772 19-297): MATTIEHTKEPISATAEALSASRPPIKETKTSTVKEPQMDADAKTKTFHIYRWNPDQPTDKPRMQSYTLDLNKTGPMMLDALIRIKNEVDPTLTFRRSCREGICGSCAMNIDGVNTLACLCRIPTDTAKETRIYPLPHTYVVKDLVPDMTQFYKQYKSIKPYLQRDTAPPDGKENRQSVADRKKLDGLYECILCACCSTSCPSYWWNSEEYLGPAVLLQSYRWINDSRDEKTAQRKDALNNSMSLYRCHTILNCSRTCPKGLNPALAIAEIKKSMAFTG
Chain of WT-SQR (SDHC), IPO323 mitochondria (F9XH52 entry or part of it): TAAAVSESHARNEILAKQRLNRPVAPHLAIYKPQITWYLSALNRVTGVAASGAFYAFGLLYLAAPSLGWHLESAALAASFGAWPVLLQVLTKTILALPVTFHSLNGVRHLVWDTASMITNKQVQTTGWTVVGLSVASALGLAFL

CON(C(=O)c1cn(C)nc1C(F)F)[C@@H](C)Cc1c(Cl)cc(Cl)cc1Cl [Pydiflumetofen]
In planta EC50 ([1]; 06STD024 ZtSDHC1 KO on wheat Riband): 2.85 g.ha^-1
In planta EC50 ([1]; 06STD024 ZtSDHC3 KO mutant on wheat Riband): 0.053 g.ha^-1
In planta EC50 ([1]; WT isolate 06STD024 on wheat Riband): 1.31 g.ha^-1
In planta sensitivity difference compared to the ZtSDHC3 KO mutant ([1]; WT isolate 06STD024 vs 06STD024 ZtSDHC3 KO): 25 fold
IC50 [2]: 0.3 ± 0.04 nM
